Data on five compounds can be found in patent publication US7582417B2, “Sequential reporter enzyme luminescence (SRL) methods and compositions for practicing the same” (The Board of Trustees of the Leland Stanford Junior …, priority 2006, dated 2009).

A value given as a limit tells only on which side of the number the result lay.

The target of data set [1] is T1, β-gal activity of implanted FLuc/LacZ cells (Escherichia coli, UniProt P00722). Briefly: Near-infrared fluorescent imaging of β-gal activity with DDAOG. The data set is classed as in vivo, mouse. Details: expressed in transfected cells; host or cells: C2C12 mouse myoblasts, retrovirally transduced (FLuc/LacZ cells). Conditions: 1×10^6 cells, right vs left leg. The protocol: The near-infrared imaging probe DDAOG (Molecular Probes) was injected intravenously (0.5 mg of DDAOG in 100 μl of DMSO and PBS (1:1)). NIRF reflectance imaging was performed using an IVIS-200 imager (Xenogen) with a custom filter set (excitation: 615-645; emission: 680-720 nm) (Omega Optical). Images were continuously acquired over 45 min after substrate injection and the images showing optimal signal-to-noise ratios were chosen for comparison.

For data set [2] the following is noted: published value; cited from earlier work.
Data set [3] has as its target T2, somatostatin 2 receptor (SSTR2) (Homo sapiens, UniProt P30874).
T2 construct: expressed in transfected cells; host or cells: C2C12 myoblasts, retrovirally transduced; the in vivo cells also carry Ras and FLuc
Briefly: In vivo luminescent imaging of somatostatin 2 receptor activation (SSTR2/Fluc cells in BALB/c nude mice, Lugal). The note with it: after octreotide i.p. From the text:
All protocols were approved by the Administrative Panel on Laboratory Animal Care at Stanford University School of Medicine. BALB/c nude were obtained from the Stanford University in-house colony. C2C12 myoblasts were harvested and suspended in 0.5% BSA in PBS at a final concentration of 10^8 cells/ml for injection. 4×10^6 cells carrying the β2/arrestin β-gal/Ras/FLuc or the SSTR2/arrestin β-gal/Ras/FLuc constructs were subcutaneously into the back of mice (2 injections/mouse), and allowed to grow into small tumors over 7 to 14 days.
Imaging was carried out using a Xenogen-100 device as previously described. Briefly, the system is composed of a light-tight imaging chamber, a digital CCD camera colled by a cryogenic refrigeration unit and a computer system (Living Image™ 2.50 software, Xenogen, Alameda).
We engineered new cell lines carrying the SSTR2/arrestin-β-galactosidase construct by retroviral transduction with the Fluc and ras genes (SSTR2/Fluc).

Data set [4] addresses T1, β-gal activity of implanted FLuc/LacZ cells. The protocol:
Imaging was performed using a Xenogen-100 device as previously described (Cao et al., supra). Briefly, the system is comprised of a light-tight imaging chamber, a cooled digital CCD camera with a cryogenic refrigeration unit and the appropriate computer system (Living Image™ 2.50 software, Xenogen, Alameda). […] C2C12 myoblasts were harvested and suspended in 0.5% BSA in PBS at a final concentration of 10^8 cells/ml for injection. For experiment shown in FIG. 1e, 10^6 cells expressing LacZ and FLuc (FLuc/LacZ cells) were injected into the right tibialis anterior muscle (TA) and 10^6 cells expressing FLuc only (FLuc cells) into the left TA of BALB/c nude mice. […] For experiment shown in FIGS. 2a and 2b, a range of cell numbers between 5×10^4 and 2×10^6 were injected subcutaneously in 10 different locations of the back of BALB/c nude mice.

The target of data set [5] is β-gal activity in FLuc/LacZ C2C12 cells (Escherichia coli, UniProt P00722). The procedure:
The parental MFG-IRES-lyt-2 construct was used to generate the lyt-2 expressing myoblasts. Retroviral transduction was performed using the ecotropic ΦNX packaging cell line (generous gift of GP Nolan). This line was transiently transfected with the proviral constructs using Fugene transfection reagent (Boehringer Mannheim). […] Polybrene was added to a final concentration of 8 μg/ml (Sigma) and cells were spun at 2,000 RPM in a Beckman GS-6 centrifuge. Cells transduced with the Luciferase-IRES-lyt-2 construct or the parental MFG-IRES-lyt-2 construct were stained with an anti-lyt-2 antibody conjugated to APC (BD Pharmingen). Cells were sorted by FACS on a Becton Dickinson flow cytometer with MoFlo electronics. […] For the in vitro cell studies, C2C12 cells were seeded in growth medium into a 384-well dish. […] The plate was read on a Tropix TR717 luminometer at room temperature with an integration time of 1 s/well. […] Cell lysates were prepared by aspirating the media and adding 15 ul of lysis buffer (1% Triton-X100, 50 mM Tris-HCl, 10 mM MgCl2, 10 mM DTT, 1 mM ATP, pH 7.5). For wells with intact cells, 15 ul of PBS was substituted for lysis buffer. The substrates were added at equivalent volumes to bring the reaction volume to 30 ul.

The target in data set [6] is T3, mouse angiotensin receptor 1 (AGTR1) (Mus musculus, UniProt P29754).
T3 construct: expressed in transfected cells; host or cells: C2C12 myoblasts, retrovirally transduced
Briefly: GPCR/arrestin β-gal complementation assay, AGTR1 cell line. In kind it is cell-based.
Experimental: Cells expressing the GPCR-α* and β-arrestin2-ω fusions were seeded at 20,000 cells/well in a 96-well dish overnight. Ligand was added for 1 hour. Media is aspirated and 50 ul of lysis solution (buffer A) and substrate (Gal-screen) in a 25:1 ratio was added to each well. The plates were incubated for 60-90 min at room temperature before reading in a TR717 luminometer with an integration time of 1 second. EC50 values were calculated using non-linear regression with a variable slope sigmoidal dose response algorithm in Prism software (Graphpad).
To test the sensitivity of the GPCR/arrestin assay, each cell line was plated in a 96-well dish and treated for 60 minutes with escalating doses of the indicated agonist (FIG. 9B). β-gal activity was measured using a luminescent substrate (Tropix).

T1 sequence (P00722 whole entry): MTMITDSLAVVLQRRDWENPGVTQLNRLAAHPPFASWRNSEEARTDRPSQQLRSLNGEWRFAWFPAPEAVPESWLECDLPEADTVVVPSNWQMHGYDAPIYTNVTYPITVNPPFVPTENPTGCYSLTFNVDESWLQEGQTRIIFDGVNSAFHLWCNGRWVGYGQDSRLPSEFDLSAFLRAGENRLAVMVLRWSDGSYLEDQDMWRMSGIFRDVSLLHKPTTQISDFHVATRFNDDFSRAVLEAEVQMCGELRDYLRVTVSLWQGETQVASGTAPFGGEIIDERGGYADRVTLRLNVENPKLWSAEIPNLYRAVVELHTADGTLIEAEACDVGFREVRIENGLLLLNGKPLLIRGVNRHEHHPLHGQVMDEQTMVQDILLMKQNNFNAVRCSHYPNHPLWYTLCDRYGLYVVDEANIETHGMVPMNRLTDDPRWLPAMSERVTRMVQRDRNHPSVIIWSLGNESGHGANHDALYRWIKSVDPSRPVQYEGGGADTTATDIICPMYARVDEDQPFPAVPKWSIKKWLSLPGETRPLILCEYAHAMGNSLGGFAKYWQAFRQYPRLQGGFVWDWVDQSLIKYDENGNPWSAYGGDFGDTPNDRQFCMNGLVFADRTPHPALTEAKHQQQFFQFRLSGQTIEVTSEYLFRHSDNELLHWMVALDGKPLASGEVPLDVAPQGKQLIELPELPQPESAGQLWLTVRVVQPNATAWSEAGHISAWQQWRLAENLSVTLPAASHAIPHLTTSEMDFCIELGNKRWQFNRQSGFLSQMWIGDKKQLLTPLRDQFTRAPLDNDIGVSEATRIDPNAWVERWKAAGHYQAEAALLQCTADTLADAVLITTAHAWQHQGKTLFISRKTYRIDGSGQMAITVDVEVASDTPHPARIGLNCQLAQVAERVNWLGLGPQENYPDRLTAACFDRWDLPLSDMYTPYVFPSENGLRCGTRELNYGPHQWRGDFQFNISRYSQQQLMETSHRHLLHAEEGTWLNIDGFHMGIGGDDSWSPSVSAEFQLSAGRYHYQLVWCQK
T3 sequence (P29754 whole entry): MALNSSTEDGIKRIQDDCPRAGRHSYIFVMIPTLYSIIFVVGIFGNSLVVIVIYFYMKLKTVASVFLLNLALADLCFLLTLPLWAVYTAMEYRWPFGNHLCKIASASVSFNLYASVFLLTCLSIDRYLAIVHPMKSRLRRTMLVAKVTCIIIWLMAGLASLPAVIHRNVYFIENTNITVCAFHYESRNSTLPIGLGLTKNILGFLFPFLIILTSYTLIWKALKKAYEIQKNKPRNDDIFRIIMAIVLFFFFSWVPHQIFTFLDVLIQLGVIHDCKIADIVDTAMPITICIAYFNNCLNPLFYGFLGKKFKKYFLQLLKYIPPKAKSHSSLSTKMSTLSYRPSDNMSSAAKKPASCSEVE
T3 sequence (P32121 whole entry partner): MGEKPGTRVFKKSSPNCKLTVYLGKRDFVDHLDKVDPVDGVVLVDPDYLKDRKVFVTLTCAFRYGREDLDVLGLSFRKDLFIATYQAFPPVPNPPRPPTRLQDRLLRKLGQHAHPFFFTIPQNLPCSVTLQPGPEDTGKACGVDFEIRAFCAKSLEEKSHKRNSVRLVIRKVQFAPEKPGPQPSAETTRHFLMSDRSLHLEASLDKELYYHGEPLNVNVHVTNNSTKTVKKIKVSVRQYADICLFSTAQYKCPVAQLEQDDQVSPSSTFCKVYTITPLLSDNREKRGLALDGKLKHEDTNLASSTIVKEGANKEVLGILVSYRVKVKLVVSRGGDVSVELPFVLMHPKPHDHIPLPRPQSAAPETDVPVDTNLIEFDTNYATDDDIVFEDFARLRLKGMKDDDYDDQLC
T2 sequence (P30874 whole entry): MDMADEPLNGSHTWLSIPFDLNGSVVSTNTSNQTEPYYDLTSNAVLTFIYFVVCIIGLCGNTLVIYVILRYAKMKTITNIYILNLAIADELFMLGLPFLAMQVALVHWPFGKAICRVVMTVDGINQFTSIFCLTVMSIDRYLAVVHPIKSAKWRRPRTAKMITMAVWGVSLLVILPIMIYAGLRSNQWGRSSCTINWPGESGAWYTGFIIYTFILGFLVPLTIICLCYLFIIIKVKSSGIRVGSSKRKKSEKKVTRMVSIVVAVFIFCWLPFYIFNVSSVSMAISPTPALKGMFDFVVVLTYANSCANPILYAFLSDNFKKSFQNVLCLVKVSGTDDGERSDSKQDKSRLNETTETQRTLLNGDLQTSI
T2 sequence (P32121 whole entry partner): as the sequence (P32121 whole entry partner) above
Sequence of β-gal activity in FLuc/LacZ C2C12 cells (P00722 whole entry): as the sequence (P00722 whole entry) above

On to `CC1(C)C2=C(Cl)C(=O)C(Cl)=CC2=Nc2ccc(O[C@@H]3O[C@H](CO)[C@H](O)[C@H](O)[C@H]3O)cc21` [DDAOG, 7-hydroxy-9H-(1,3-dichloro-9,9-dimethylacridin-2-one) β-D-galactoside], for which the “signal-to-noise ratio, fluorescence imaging, leg muscles” value in data set [1] is 2.8 fold.

Turning to `CC(C)NCC(O)c1ccc(O)c(O)c1` (stereo not drawn) [isoproterenol], the serum half life entry in data set [2] is reported as “approx. 2 hours”.

On to `C[C@@H](O)[C@@H]1NC(=O)[C@H](CCCCN)NC(=O)[C@@H](Cc2c[nH]c3ccccc23)NC(=O)[C@H](Cc2ccccc2)NC(=O)[C@@H](NC(=O)[C@H](N)Cc2ccccc2)CSSC[C@@H](C(=O)N[C@H](CO)[C@@H](C)O)NC1=O` [octreotide], for which the serum half life entry in data set [2] is listed as “approx. 6 hours”. For the same compound, the “time for luminescence to return to baseline” value in data set [3] was 24 h; in data set [3] (listed as Octreotide), no more than 24 h.

For “D-luciferin-O-β-galactopyranoside [Lugal]”, the “bioluminescence signal of FLuc/LacZ cells relative to FLuc cells” value in data set [4] (1×10^6 cells per tibialis anterior, right vs left leg, i.p. Lugal) is 30-200 fold. Moreover, the “signal-to-noise ratio, luminescence imaging, leg muscles” value in data set [4] (1×10^6 cells, right vs left leg) is on record as 429 fold. Moreover, the “signal-to-noise ratio of Lugal relative to DDAOG, deeper tissues (skeletal muscle)” value in data set [4] (higher with Lugal) was 150 fold. The “Lugal concentration at which strong luminescent signals were generated” value in data set [5] (FLuc/LacZ C2C12 cells, 384-well dish, concentrations as low as) is 10 µg/mL. In addition, in data set [5] (cells expressing FLuc alone, only at the highest concentration), the “Lugal concentration at which a measurable signal was generated without β-gal” value was 1000 µg/mL.

As for “angiotensin (DRVYIHPF; Angiotensin-2; UniProt P01019 25-32, looked up) [AGTR1 agonist obtained from Sigma]”, the EC50 result in data set [6] was “in good agreement with radiolabeled ligand binding assays”. Moreover, the “increase in β-galactosidase activity” value in data set [6] (60 minutes agonist) is reported as “greater than 15 fold”.
